In one data set the test system is Vero E6 cells. The conditions noted are these: Vero E6 24 h 5% FBS.
Details of data set [1]: method as in NCT04385420; EudraCT 2021-005225-25. The note with it: two phase 1 studies in healthy volunteers, ref NCT04385420; EudraCT 2021-005225-25; cited from earlier work.
In another data set the test system is HMGB1, GLDH, SELP. The data set is described as follows: Candidate safety biomarker analysis in hamster serum (IA-LC-MS/MS). The format is in vivo, Syrian hamsters. The protocol: Serum samples from hamsters collected at pre- infection (0 dpi) and post-infection (4 dpi) and treatment time points were analyzed to evaluate the levels of various candidate safety biomarkers. Serum proteins were enzymatically fragmented through proteolysis, and protein-specific peptides were targeted for quantification of the corresponding protein biomarker levels by immunoaffinity liquid chromatography tandem mass spectrometry (IA-LC-MS/MS) performed as described previously ([48], [49]). For further details, see Supplementary Methods .
The candidate protein biomarkers were quantified via specific peptides analyzed by immunoaffinity liquid chromatography tandem mass spectrometry (IA-LC-MS/MS) assays. For proteolysis, 10 μL of each serum sample was mixed with 50 μL of digestion buffer (100 mM triethanolamine and 0.5% (w/v) n-octylglucoside (NOG)), and proteolysis reagents were added to achieve a final sample volume of 100 µL. The proteolysis procedure included denaturation at 99 °C for 5 minutes, reduction in 5 mM tris(2-carboxyethyl)-phosphine at 22 °C for 5 minutes, alkylation in 10 mM iodoacetamide at 22 °C for 20 minutes and an overnight enzymatic fragmentation at 37 °C with a trypsin-to-protein ratio of 1:20 (assuming a concentration of 60 mg/mL protein in serum). […]
The following peptide transitions were monitored in the mass spectrometer : […] […]

Data set [2] has as its system cytokine and chemokine levels. The data set is described as follows: Cytokine and chemokine levels in SARS-CoV-2-infected Syrian hamsters (serum ELISA, lung RT-qPCR). It is filed as in vivo. The conditions noted are these: 4 dpi, between groups after infection and treatment. The method, then:
Eleven- to thirteen-week-old male Syrian hamsters (Janvier, France) with a body weight of 113-148 g were infected on day 0 intranasally with SARS-CoV-2 (1x10^3 median tissue culture infectious dose (TCID50) BetaCoV/Munich/BavPat1/2020) in a total volume of 0.1 mL PBS divided between the nostrils. Zapnometinib (100 mg/kg) was administered p.o. at 4 or 24 h p.i. and the animals in both groups were treated thereafter with 75 mg/kg zapnometinib once daily. The animals in the control group received vehicle (5% DMSO, 15% Kolliphor, 80% PBS) 4 h p.i. and thereafter once daily. Serum samples were collected from hamsters before infection (0 dpi) and at 4 dpi, and the levels of different cytokines and chemokines (IL1-β, TNF-α, IL-6, and IP-10) were analyzed by ELISA (Assay Genie, Ireland). […] Tetramethylbenzidine (TMB) substrate was added and the color change in the wells was used as readout for the ELISA. The optical density (OD) at 450 nm was read. Cytokine and chemokine concentrations were calculated following the manufacturer’s instructions for interpolating unknown concentrations from a standard curve.
Supplementary Figure 3. […] A. Cytokine levels in serum samples collected at 0 dpi (before infection and treatment, bottom row) and 4 dpi (top row) from vehicle-treated and zapnometinib-treated Syrian hamsters from the efficacy study analyzed by ELISA are shown. […]
On the technique in general: In an ELISA, binding on a coated surface is turned into a signal by an enzyme label.

Read-outs that look alike come from different tables or passages of the source.

Take `O=C(O)c1ccc(F)c(F)c1Nc1ccc(I)cc1Cl` [zapnometinib]: the “%LDH release compared to maximum LDH release” value in the data set on Vero E6 cells (0.39 µM) was determined as 0.22%; in the data set on Vero E6 cells (0.78 µM), 0.17%; in the data set on Vero E6 cells (1.56 µM), 0.15%; with Vero E6 cells (3.13 µM), 0.39%; in the data set with Vero E6 cells (6.25 µM), 0.13%; in the data set on Vero E6 cells (12.50 µM), 0.09%. Also, the “%LDH release compared to maximum LDH release” value with Vero E6 cells (25.00 µM) is -0.04%; with Vero E6 cells (50.00 µM), 0.02%; in the data set with Vero E6 cells (75.00 µM), 0.24%; in the data set on Vero E6 cells (100.00 µM), 0.26%. The “toxicity and tolerability in humans” value in data set [1] is “showed no toxicity and was well tolerated”. In addition, the “levels of safety biomarkers HMGB1, GLDH, SELP in serum” value in the data set with HMGB1, GLDH, SELP (0 dpi vs 4 dpi, 100 mg/kg then 75 mg/kg from +4 or +24 h p.i.) is recorded as “no prominent changes”. Besides, the “toxicity of the treatment regimen” value with HMGB1, GLDH, SELP (100 mg/kg followed by 75 mg/kg beginning at +4 or +24 h p.i.) is “not toxic”. Also, the “cytokine and chemokine levels in serum (ELISA) and lung tissue (RT-qPCR)” value in data set [2] is “no major differences”.

Source of the values: PMC12498288 (Frontiers in Immunology, 2025).
